Laboratory results: patent US20250092345A1, “INTER ORGAN PLATFORM FOR MICROPHYSIOLOGICAL SYSTEM ON A CHIP” (THE TRUSTEES OF COLUMBIA UNIVERSITY IN THE CITY OF NEW YORK, priority 2020, published 2025)

Experiments:
[1] = test system: engineered cardiac tissues; assay: Engineered cardiac tissues in isolation, linsitinib cardiotoxicity; format: cell-based, human; conditions: after linsitinib exposure, isolated
From the text: After establishing the capability of TE-ES tumors to model drug efficacy, we evaluated the ability of cardiac tissues to determine the cardiotoxicity of linsitinib. Cardiac tissues were exposed to the same therapeutic concentration of linsitinib as bone tumors. […] Cardiotoxicity of linsitinib has been observed in clinical trials of other types of cancer, with patients presenting proarrhythmic events, like tachycardia (3.75-5% of patients) and atrial fibrillation (3.75-5%). We observed higher beat frequency and higher rate of proarrhythmic events per beat (around 36%) than in clinical studies (FIG. 32B and FIG. 32C). […]
Cardiac tissues were studied using caffeine (50 mM in water; Sigma-Aldrich), amiodarone hydrochloride (2.418 µM in DMSO; Sigma-Aldrich), isoproterenol hydrochloride (a series of drug concentrations in water; Sigma-Aldrich) or doxorubicin hydrochloride (1 µM in DMSO; Sigma-Aldrich), all diluted in RPMI Medium 1640 supplemented with B-27[…]. Response to isoproterenol was analyzed 10 minutes after exposure to […] isoproterenol hydrochloride, diluted in RPMI Medium […] supplemented with B27[…]. […]
To measure the cardiac contractility online, we took contractility videos of the tissues that were analyzed using the native MATLAB code we previously developed. Tissue contractility was measured by tracking the change in tissue area as a function of time. […]

[2] = test system: non-metastatic TE-ES bone tumor tissues; assay: Non-metastatic ES bone tumor in the integrated platform with microfluidic perfusion, linsitinib; format: cell-based, human; conditions: 12 μM
Method: The TE-ES and cardiac tissues were then cultured in the integrated platform with perfusion of mixed media. Linsitinib was introduced into the reservoir and delivered to tissues via circulation of perfusate and diffusion into the tissues.
ES cells, when co-cultured with mesenchymal stem cells and exposed to physiological shear-stress in a perfusion bioreactor, can become resistant to IGF-1R inhibitors. Therefore, we evaluated the role of flow derived shear stress in this newly found resistance of non-metastatic TE-ES bone tumor tissues to the IGF-1R inhibitor linsitinib. Linsitinib was introduced into the platform (12 µM, 3 days), either via circulation or directly into the TE-ES tissue chamber (FIG. 34G), to distinguish effects of flow-derived stimuli from drug diffusion into the tissues.
Upon maturation, bone tumors in the platform were exposed to a 1:1 mixture of the bone tumor and cardiac tissue media, supplemented by 12 μM linsitinib in the treated groups. […]
Cell viability was analyzed using a previously established protocol. Cancer cell viability was measured for GFP-Luciferase labelled cancer cells using ONE-Glo luciferase substrate that was prepared according to manufacturer's protocol (Promega). […] Where noted, longitudinal cell viability was also assessed using luminescence, though at the cost of signal strength. […] Some of the IC50 values were determined using cell viability data generated using an MTT assay (RealTime-Glo™ MT Cell Viability Assay, Promega) that were analyzed according to manufacturer's protocol.
In order to confirm linsitinib mechanism of action in ES cells, both RD-ES and SK-N-MC monolayers were treated with 12 μM linsitinib for 6 hours, lysed, measured for protein quantity using a Pierce™ BCA Protein Assay Kit (ThermoFisher), and loaded equally onto a Human Phospho-IGF1R ELISA (RayBiotech) to semi-quantitatively determine phosphorylated levels of the IGF-1 receptor, according to manufacturer's instructions. Osteocalcin (OCN), osteopontin (OPN), and lactic acid dehydrogenase (LDH) secreted levels were all measured using a similar approach. […]

[3] = cited from earlier work

Compound: C[C@]1(O)C[C@@H](c2nc(-c3ccc4ccc(-c5ccccc5)nc4c3)c3c(N)nccn32)C1 [linsitinib]
- inotropic response to subsequent isoproterenol [1]: not observed
- response to the drug (luminescence) ([2]; 3 days, directly into the tissue chamber (immediate exposure)): fast response
- drug response (luminescence) ([2]; 3 days, perfused integrated platform): insignificant drug response
- secretion of LDH, vehicle vs linsitinib treated ([2]; 72 hours, perfused integrated platform): no significant difference
- half-life [3]: approximately 5 hours
